US8501725B2, “Synergistic combination of flumetsulam or diclosulam with zinc pyrithione” (Dow Global Technologies LLC, priority 2010, dated 2013)
Read-outs that look alike come from different tables or passages of the source.

Assays:
Type in all cases: cell-based
[1] = test system: Aa + Tv + An + Pf + Ap + Ch; assay: Fungal efficacy testing, modified ASTM 5590, paint film (Diclosulam + ZPT study, single pool of all fungi); details: four weeks; for % inhibition: at the Total conc given; for Total conc: in acrylic latex paint, dry film, 30 C
Description: (§1) Sample preparation: A single or blend of biocides was post added into white acrylic latex paint free of biocides to give a maximum total active ingredient/s concentration tested. This paint was then diluted with a biocide free acrylic latex paint to give targeted concentrations for the testing. Depending on the type of biocide blends tested, the total biocides concentrations varies from 200 to 5000 ppm. After biocides addition or dilution, each sample was hand mixed for at least a minute until uniformity is achieved. Each of the paint samples as well as a control sample (containing no biocide) were used to prepare films on black plastic-vinyl chloride/acetate copolymer panels (LENETA, Mahwah, N.J.) using a 3 mil (0.0762 mm) bird bar applicator. The panels were thoroughly dried for at least 2 days avoiding direct exposure to sunlight. Square discs ([…]) were cut out from each panel and were used as the substrate for fungal and algal efficacy tests. This sample size allowed for an agar border when the sample disc was placed into the well of the test plate. Each sample was tested in duplicate
(§2) Test conditions: The appropriate media (BOLD'S 3N for Chlorophytes, BG-11 for Cyanobacteria, and PDA for fungi) were used to support microbial growth. The test plates were maintained at room temp (25° C.-26° C.), in a cycled light-dark environment, for four weeks for algae. Plates for fungal challenge tests were maintained at 30 C for four weeks. At the end of the incubation period the samples were scored for percent area covered by visible microbial growth.
ASTM 5590 is a standard accelerated test method for determining resistance of various coatings (including paints) to fungal defacement. To accommodate for high-throughput screening, this method was scaled down from petri plates to 6-well plates. To set up the test, an agar plug was placed at the bottom of each well of the sterile 6-well plate. A single coupon was placed with a pair of sterile forceps at the center of the agar plug (on top) with the painted surface facing upwards. Fungal inoculums were prepared by mixing equal concentrations (1×10^6 cfu/ml) and equal volumes (depending on number of samples to be tested) of like growing organisms. For Flumetsulam+various IT synergy study, three pools of mixed fungi were prepared as the test inoculum. Cladosporium herbarum was mixed with Aureobasidium pullulans; Aspergillus niger was mixed with Penicillium funiculosum and Alternaria alternata was mixed with Trichoderma viride. For Diclosulam+various IT synergy study, all above fungi were mixed as a single pool. […] The total percent area covered was evaluated and recorded at the end of each week after the 2nd week and recorded in increments of 5%.
(§3) The SI is calculated based on F. C. […]

[2] = test system: Gloeocapsa sp. and Oscillatoria sp. (Gs + Os); assay: Algal efficacy testing, modified ASTM 5589, paint film (both studies); details: four weeks; for MIC: 672 h, read-out: Total conc (minimum inhibitory concentration chosen for SI); for MIC / Total conc (minimum inhibitory concentration chosen for SI): in acrylic latex paint, dry film; for % inhibition: at the Total conc given
Description: as §1, §2
(§4) ASTM 5589 is a standard accelerated test method for determining resistance of various coatings (including paints) to algal defacement. To accommodate for high-throughput screening, this method was scaled down from petri plates to 6-well plates. A single coupon was placed with a pair of sterile forceps at the center of the agar plug (on top) with the painted surface facing upwards. Algal inoculums were prepared by mixing equal concentrations (1×10^6 cfu/ml) and equal volumes (depending on number of samples to be inoculated) of like growing organisms.
(§5) In Flumetsulam+various IT synergy study, three pool of mixed algae were prepared as the test inoculum, Gloeocapsa sp. and Oscillatoria sp. a mix of cyanobacteria grown on BG-11 media; Chlorella sp., Chlorella kessleri, and Nostoc commune are unicellular chlorphytes that were mixed and grown on Bold media; Trentepohlia aurea, Tretepohlia odorata, and Calotrix parientina are filamentous algae that were mixed and grown on Bold media.
(§6) In Diclosulam+various IT synergy study, only two pools of mixed algae were prepared; Gloeocapsa sp. and Oscillatoria sp. grown on BG-11 media and Chlorella sp., Chlorella kessleri, Nostoc commune, Trentepohlia aurea, Tretepohlia odorata, and Calotrix parientina grown on Bold media
(§7) Each well that contains a tested coupon was inoculated with 400 μl of organism mixture (1×10^6 cfu/ml) making sure that the whole surface (paint film as well as the agar surrounding it) was evenly covered. The plates were incubated at room temp (25° C.-26° C.) with cyclic exposure to light (OTT-Lite model # OTL4012P, 40 Watt, 26KLumen) and dark phases, for a period of four weeks. The total area covered was evaluated at the end of each week according to percent area covered in 5% increments.
(§8) The SI is calculated based on F. C.
(§9) NE=no end point at the concentration tested that will meet the percent inhibition criteria set in each SI calculation

[3] = test system: Chlorella sp., Chlorella kessleri, Nostoc commune, Trentepohlia aurea, Tretepohlia odorata, and Calotrix parientina (Cp + To + Ta + Cs + Ck + Nc); assay: Algal efficacy testing, modified ASTM 5589, paint film (Diclosulam + ZPT study); details: four weeks; for % inhibition: at the Total conc given
Description: as §1, §2, §4, §6
(§10) Each well that contains a tested coupon was inoculated with 400 μl of organism mixture (1×10^6 cfu/ml) making sure that the whole surface (paint film as well as the agar surrounding it) was evenly covered. […] The total area covered was evaluated at the end of each week according to percent area covered in 5% increments.
as §3

[4] = as above; details: Nostoc commune, 672 h; Cp + To + Ta + Cs + Ck + Nc; in acrylic latex paint, dry film; four weeks; read-out: Total conc (minimum inhibitory concentration chosen for SI)
Description: as §1, §2, §4, §6, §10, §3

[5] = test system: Chlorella sp., Chlorella kessleri, and Nostoc commune (Cs + Ck + Nc); assay: Algal efficacy testing, modified ASTM 5589, paint film (Flumetsulam + ZPT study); details: four weeks; for % inhibition: at the Total conc given
Description: as §1, §2, §4, §5, §7, §8, §9

[6] = test system: Trentepohlia aurea, Tretepohlia odorata, and Calotrix parientina (Cp + To + Ta); assay: as above; details: four weeks; for % inhibition: at the Total conc given; for Total conc (minimum inhibitory concentration chosen for SI): in acrylic latex paint, dry film, 25-26 C, light-dark
Description: as §1, §2, §4, §5, §7, §8, §9

[7] = test system: Aspergillus niger mixed with Penicillium funiculosum (AnPf); assay: Fungal efficacy testing, modified ASTM 5590, paint film (Flumetsulam + ZPT study); details: four weeks; for % inhibition: at the Total conc given
Description: as §1, §2
(§11) ASTM 5590 is a standard accelerated test method for determining resistance of various coatings (including paints) to fungal defacement. To accommodate for high-throughput screening, this method was scaled down from petri plates to 6-well plates. To set up the test, an agar plug was placed at the bottom of each well of the sterile 6-well plate. A single coupon was placed with a pair of sterile forceps at the center of the agar plug (on top) with the painted surface facing upwards. Fungal inoculums were prepared by mixing equal concentrations (1×10^6 cfu/ml) and equal volumes (depending on number of samples to be tested) of like growing organisms. For Flumetsulam+various IT synergy study, three pools of mixed fungi were prepared as the test inoculum. Cladosporium herbarum was mixed with Aureobasidium pullulans; Aspergillus niger was mixed with Penicillium funiculosum and Alternaria alternata was mixed with Trichoderma viride. For Diclosulam+various IT synergy study, all above fungi were mixed as a single pool. Each well was inoculated with 400 μl of organism mixture (1×10^6 cfu/ml) making sure that the whole surface (paint film as well as the agar surrounding it) was evenly covered. The plates were incubated at 30° C. in presence of moisture, for a period of four weeks. The total percent area covered was evaluated and recorded at the end of each week after the 2nd week and recorded in increments of 5%.
as §8, §9

[8] = test system: Cladosporium herbarum mixed with Aureobasidium pullulans (ApCh); assay: as above; details: four weeks; for % inhibition: at the Total conc given
Description: as §1, §2, §11, §8, §9

[9] = test system: Alternaria alternata mixed with Trichoderma viride (AaTv); assay: as above; details: four weeks; for % inhibition: at the Total conc given
Description: as §1, §2, §11, §8, §9

[10] = in acrylic latex paint, dry film, 30 C

Row | Molecule | % inhibition [1] [%] | Total conc [1] [ppm] | % inhibition ([2]; Diclosulam and ZPT study) [%] | % inhibition [3] [%] | % inhibition [5] [%] | % inhibition [6] [%] | Total conc (minimum inhibitory concentration chosen for SI) [6] [ppm] | % inhibition [7] [%] | % inhibition [8] [%] | % inhibition [9] [%] | % inhibition ([2]; Flumetsulam and ZPT study) [%] | further results
1 | CCOc1nc(F)cc2nc(S(=O)(=O)Nc3c(Cl)cccc3Cl)nn12 [Diclosulam, N-(2,6-dichlorophenyl)-5-ethoxy-7-fluoro[1,2,4]triazolo[1,5-c]pyrimidine-2-sulfonamide] | 0 | 3500 | 100 | 80 |  |  |  |  |  |  |  | MIC ([2]; Diclosulam and ZPT study): 438 µg/mL; MIC [4]: 3500 µg/mL
2 | Cc1ccn2nc(S(=O)(=O)Nc3c(F)cccc3F)nc2n1 [Flumetsulam, N-(2,6-difluorophenyl)-5-methyl[1,2,4]triazolo[1,5-a]pyrimidine-2-sulfonamide] |  |  |  |  | 90 | 100 | 2625 | 0 | 25 | 0 | 0 | MIC ([5]; Nostoc commune, 672 h, in acrylic latex paint, dry film, 25-26 C, light-dark, read-out: Total conc (minimum inhibitory concentration chosen for SI)): 3500 µg/mL; MIC ([7]; Aspergillus niger, 672 h, in acrylic latex paint, dry film, 30 C, read-out: Total conc (minimum inhibitory concentration chosen for SI)): 3500 µg/mL; MIC ([8]; Cladosporium herbarum, 672 h, in acrylic latex paint, dry film, 30 C, read-out: Total conc (minimum inhibitory concentration chosen for SI)): 3500 µg/mL; MIC ([9]; Alternaria alternata, 672 h, in acrylic latex paint, dry film, 30 C, NE = no end point at the concentration tested, read-out: Total conc (minimum inhibitory concentration chosen for SI)): 3500 µg/mL; MIC ([2]; Flumetsulam and ZPT study): 2620 µg/mL
3 | zinc pyrithione [ZPT] | 0 | 5000 | 100 | 100 | 100 | 100 | 625 | 100 | 100 | 50 | 100 | Total conc (minimum inhibitory concentration chosen for SI) ([5]; in acrylic latex paint, dry film, 25-26 C, light-dark): 625 ppm; Total conc (minimum inhibitory concentration chosen for SI) [7, 10]: 625 ppm; Total conc (minimum inhibitory concentration chosen for SI) [8, 10]: 625 ppm; Total conc (minimum inhibitory concentration chosen for SI) ([9]; in acrylic latex paint, dry film, 30 C, NE = no end point at the concentration tested): 5000 ppm; Total conc (minimum inhibitory concentration chosen for SI) ([2]; Diclosulam and ZPT study): 625 ppm; Total conc (minimum inhibitory concentration chosen for SI) ([2]; Flumetsulam and ZPT study): 625 ppm; Total conc (minimum inhibitory concentration chosen for SI) ([3]; in acrylic latex paint, dry film): 625 ppm
